Results as given in patent US20260374773A1, “MULTI-CYCLIC IRAK AND FLT3 INHIBITING COMPOUNDS AND USES THEREOF” (CHILDREN'S HOSPITAL MEDICAL CENTER, priority 2022, published 2026).

Key:
IRAK1 = IRAK1 (Homo sapiens, UniProt P51617); experiment: DiscoverX KINOMEscan active site-directed competition binding, IRAK1; conditions: no ATP
Source text: (§1) Kinase binding data were obtained for various exemplary compounds prepared according to Examples 1-8 using the DiscoverX KINOMEscan® active site-directed competition binding site-directed assay protocol described below. […] As a result, the data report thermodynamic interaction affinities (Kd values), rather than IC50 values that are dependent on ATP concentrations. The assay uses a DNA-tagged version of the protein kinase, and an immobilized ligand bound to a solid support. Compounds that directly or indirectly prevent kinase binding to the immobilized ligand reduce the amount of kinase captured on the solid support, which is detected using an ultra-sensitive qPCR method. Affinity constants reported from the assay have been reported to be independent of the immobilized ligand used that is coupled to the solid support (See supplemental information in Fabian, M. A. et. al., (2005) Nat. Biotechnol. 23, 329-336; Wodicka, L. M. et. al., (2010) Chem. Biol. 17, 1241-1249.)
(§2) Kinase-tagged T7 phage strains were prepared in an E. coli host derived from the BL21 strain. E. coli were grown to log-phase and infected with T7 phage and incubated with shaking at 32 °C until lysis. The lysates were centrifuged and filtered to remove cell debris. The remaining kinases were produced in HEK-293 cells and subsequently tagged with DNA for qPCR detection. Streptavidin-coated magnetic beads were treated with biotinylated small molecule ligands for 30 minutes at room temperature to generate affinity resins for kinase assays. The liganded beads were blocked with excess biotin and washed with blocking buffer (SeaBlock (Pierce), 1% BSA, 0.05% Tween 20, 1 mM DTT) to remove unbound ligand and to reduce non-specific binding. […] Test compounds were prepared as 111x stocks in 100% DMSO. Kds were determined using an 11-point 3-fold compound dilution series with three DMSO control points. All compounds for Kd measurements are distributed by acoustic transfer (non-contact dispensing) in 100% DMSO. The compounds were then diluted directly into the assays such that the final concentration of DMSO was 0.9%. All reactions were performed in polypropylene 384-well plates. Each was a final volume of 0.02 mL. The assay plates were incubated at room temperature with shaking for 1 hour and the affinity beads were washed with wash buffer (1×PBS, 0.05% Tween 20). The beads were then re-suspended in elution buffer (1×PBS, 0.05% Tween 20, 0.5 μM nonbiotinylated affinity ligand) and incubated at room temperature with shaking for 30 minutes. The kinase concentration in the eluates was measured by qPCR. Binding constants (Kds) were calculated with a standard dose-response curve using the Hill equation. The Hill Slope was set to −1. Curves were fitted using a non-linear least square fit with the Levenberg-Marquardt algorithm.
as §1, with “9-12” for “1-8”
(§3) Kinase-tagged T7 phage strains were prepared in an E. coli host derived from the BL21 strain. […]

FLT3 D835Y = target: T1, FLT3 D835Y (Homo sapiens, UniProt P36888, D835Y); experiment: DiscoverX KINOMEscan active site-directed competition binding, FLT3 D835Y; conditions: no ATP
T1 sequence (P36888 27-993 D835Y): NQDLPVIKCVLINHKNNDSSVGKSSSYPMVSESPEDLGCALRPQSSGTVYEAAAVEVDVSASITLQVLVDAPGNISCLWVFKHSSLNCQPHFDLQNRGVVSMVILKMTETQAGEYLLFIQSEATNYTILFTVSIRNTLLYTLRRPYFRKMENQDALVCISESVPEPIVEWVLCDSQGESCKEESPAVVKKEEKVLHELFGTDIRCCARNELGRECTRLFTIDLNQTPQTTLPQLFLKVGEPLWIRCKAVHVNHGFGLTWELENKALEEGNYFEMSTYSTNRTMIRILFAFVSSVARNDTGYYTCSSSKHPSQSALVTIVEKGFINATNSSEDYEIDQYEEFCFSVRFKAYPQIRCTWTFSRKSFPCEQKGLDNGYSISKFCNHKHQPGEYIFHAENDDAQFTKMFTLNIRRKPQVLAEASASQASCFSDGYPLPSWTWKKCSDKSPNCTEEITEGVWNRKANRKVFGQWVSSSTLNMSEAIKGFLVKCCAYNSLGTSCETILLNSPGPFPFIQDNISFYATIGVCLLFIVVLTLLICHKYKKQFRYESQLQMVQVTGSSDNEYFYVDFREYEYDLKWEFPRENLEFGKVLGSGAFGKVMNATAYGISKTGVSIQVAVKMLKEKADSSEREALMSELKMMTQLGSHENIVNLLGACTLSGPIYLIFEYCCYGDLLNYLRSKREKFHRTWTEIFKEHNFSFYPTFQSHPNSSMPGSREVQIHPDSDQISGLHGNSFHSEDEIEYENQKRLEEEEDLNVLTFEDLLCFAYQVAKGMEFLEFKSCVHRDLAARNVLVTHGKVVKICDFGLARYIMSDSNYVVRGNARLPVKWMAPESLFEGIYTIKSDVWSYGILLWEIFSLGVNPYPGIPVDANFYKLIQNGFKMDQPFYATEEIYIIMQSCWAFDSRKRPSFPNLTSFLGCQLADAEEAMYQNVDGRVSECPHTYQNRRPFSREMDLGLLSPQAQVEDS
Source text: as §1, §2
as §1, with “9-12” for “1-8”
as §3

Chain of IRAK1 (P51617 whole entry): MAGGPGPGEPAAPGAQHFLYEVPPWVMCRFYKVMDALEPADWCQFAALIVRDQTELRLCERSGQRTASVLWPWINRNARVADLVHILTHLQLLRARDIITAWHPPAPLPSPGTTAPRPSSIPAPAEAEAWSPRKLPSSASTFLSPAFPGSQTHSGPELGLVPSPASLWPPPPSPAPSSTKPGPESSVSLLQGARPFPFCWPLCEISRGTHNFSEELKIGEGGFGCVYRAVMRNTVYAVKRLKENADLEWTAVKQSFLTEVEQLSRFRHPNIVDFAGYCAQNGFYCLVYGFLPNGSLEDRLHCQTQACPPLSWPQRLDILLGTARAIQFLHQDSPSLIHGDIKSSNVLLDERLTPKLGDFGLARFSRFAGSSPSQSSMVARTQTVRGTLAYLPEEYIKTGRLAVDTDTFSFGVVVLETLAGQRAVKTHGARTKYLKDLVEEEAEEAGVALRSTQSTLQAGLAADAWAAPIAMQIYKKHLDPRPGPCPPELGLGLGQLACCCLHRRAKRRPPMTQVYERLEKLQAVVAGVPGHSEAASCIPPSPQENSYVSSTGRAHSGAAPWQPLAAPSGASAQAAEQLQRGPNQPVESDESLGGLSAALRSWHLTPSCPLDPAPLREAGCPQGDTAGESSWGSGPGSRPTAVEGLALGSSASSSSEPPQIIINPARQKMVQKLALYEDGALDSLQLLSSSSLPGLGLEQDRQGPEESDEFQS

| SMILES | Kd (IRAK1; Table 18) [nM] | Kd (FLT3 D835Y; Table 18) [nM] | Kd (IRAK1; Table 12) [nM] | Kd (FLT3 D835Y; Table 12) [nM] |
| --- | --- | --- | --- | --- |
| COc1cn2ncc(-c3nc(N[C@H]4CNCC[C@@H]4F)ncc3F)c2nc1C(C)(C)O [Compound 6a, 2-(3-(5-fluoro-2-(((3S,4S)-4-fluoropiperidin-3-yl)amino)pyrimidin-4-yl)-6-methoxypyrazolo[1,5-a]pyrimidin-5-yl)propan-2-ol] | 0.28 | < 0.17 | – | – |
| COc1cn2ncc(-c3nc(N[C@H]4CNCC[C@@H]4F)c(C#N)cc3F)c2nc1C1CC1 [Compound 7, 6-(5-cyclopropyl-6-methoxypyrazolo[1,5-a]pyrimidin-3-yl)-5-fluoro-2-(((3S,4S)-4-fluoropiperidin-3-yl)amino)nicotinonitrile] | – | – | < 0.17 | 0.42 |
| COc1cn2ncc(-c3ccnc(N[C@H]4CNCC[C@@H]4F)n3)c2nc1C1CC1 [Compound 7a, 4-(5-cyclopropyl-6-methoxypyrazolo[1,5-a]pyrimidin-3-yl)-N-((3S,4S)-4-fluoropiperidin-3-yl)pyrimidin-2-amine] | 0.53 | 0.79 | – | – |
| COc1cn2ncc(-c3nc(N[C@H]4CNCC[C@@H]4F)c(C#N)cc3F)c2nc1C(C)(C)O [Compound 10, 5-fluoro-2-(((3S,4S)-4-fluoropiperidin-3-yl)amino)-6-(5-(2-hydroxypropan-2-yl)-6-methoxypyrazolo[1,5-a]pyrimidin-3-yl)nicotinonitrile] | – | – | 0.81 | 0.21 |
| COc1cn2ncc(-c3cncc(N[C@H]4CNCC[C@@H]4F)n3)c2nc1C1CC1 [Compound 12a, 6-(5-cyclopropyl-6-methoxypyrazolo[1,5-a]pyrimidin-3-yl)-N-((3S,4S)-4-fluoropiperidin-3-yl)pyrazin-2-amine] | 0.78 | 0.62 | – | – |

Second part, the molecule after the results:

| Kd (IRAK1; Table 18) [nM] | Kd (FLT3 D835Y; Table 18) [nM] | Kd (IRAK1; Table 12) [nM] | Kd (FLT3 D835Y; Table 12) [nM] | SMILES |
| --- | --- | --- | --- | --- |
| – | – | 0.27 | < 0.17 | COc1cn2ncc(-c3nc(N[C@H]4CNCC[C@@H]4F)c(F)cc3F)c2nc1C(C)(C)O [Compound 13, 2-(3-(3,5-difluoro-6-(((3S,4S)-4-fluoropiperidin-3-yl)amino)pyridin-2-yl)-6-methoxypyrazolo[1,5-a]pyrimidin-5-yl)propan-2-ol] |
| < 0.17 | < 0.17 | – | – | COc1cn2ncc(-c3nc(N[C@@H]4CCCNC4)ncc3F)c2nc1C1CC1 [Compound 14a, (R)-4-(5-cyclopropyl-6-methoxypyrazolo[1,5-a]pyrimidin-3-yl)-5-fluoro-N-(piperidin-3-yl)pyrimidin-2-amine] |
| < 0.17 | 0.34 | – | – | COc1cn2ncc(-c3nc(N[C@H]4CNCC[C@@H]4F)ncc3F)c2nc1C1CC1 [Compound 15a, 4-(5-cyclopropyl-6-methoxypyrazolo[1,5-a]pyrimidin-3-yl)-5-fluoro-N-((3S,4S)-4-fluoropiperidin-3-yl)pyrimidin-2-amine] |
